Test system: 855422-203-R-J1-PDC complex spheroid viability
Assay: Anticancer human tumor 855422-203-R-J1-PDC patient-derived bladder carcinoma cell line growth inhibition [POLQ]
Conditions: for IC50: curve of first compound; for viability, T/C: stronger effect = lower value
Outline: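 Three-cell-type spheroids modelling solid tumor plus stroma served as the readout system; POL inhibitors were tested individually and in combination, concentration ranges set by clinical Cmax where known.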

[1] = second compound 0.0316 µM, first compound 0.0316 µM
[2] = second compound 0.0316 µM, first compound 0.1 µM
[3] = second compound 0.0316 µM, first compound 0.316 µM
[4] = second compound 0.0316 µM, first compound 1 µM
[5] = second compound 0.1 µM, first compound 0.0316 µM
[6] = second compound 0.1 µM, first compound 0.1 µM
[7] = second compound 0.1 µM, first compound 0.316 µM
[8] = second compound 0.1 µM, first compound 1 µM
[9] = second compound 0.316 µM, first compound 0.0316 µM
[10] = second compound 0.316 µM, first compound 0.1 µM
[11] = second compound 0.316 µM, first compound 0.316 µM
[12] = second compound 0.316 µM, first compound 1 µM
[13] = second compound 1 µM, first compound 0.0316 µM
[14] = second compound 1 µM, first compound 0.1 µM
[15] = second compound 1 µM, first compound 0.316 µM
[16] = second compound 1 µM, first compound 1 µM
[17] = second compound 3.16 µM, first compound 0.0316 µM
[18] = second compound 3.16 µM, first compound 0.1 µM
[19] = second compound 3.16 µM, first compound 0.316 µM
[20] = second compound 3.16 µM, first compound 1 µM
[21] = second compound 10 µM, first compound 0.0316 µM
[22] = second compound 10 µM, first compound 0.1 µM
[23] = second compound 10 µM, first compound 0.316 µM
[24] = second compound 10 µM, first compound 1 µM
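Note: spheroids exposed to compounds for seven days before readout.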

With `C=CC(=O)N1CCN(c2nc(=O)n(-c3c(C)ccnc3C(C)C)c3nc(-c4c(O)cccc4F)c(F)cc23)C(C)C1` (centres undefined) + COC1C(OC(N)=O)C(O)C(Oc2ccc3c(O)c(NC(=O)c4ccc(O)c(CC=C(C)C)c4)c(=O)oc3c2C)OC1(C)C the IC50 (second compound 0.0316 µM) was > 10000 nM, the IC50 (second compound 0.1 µM) was > 10000 nM and the IC50 (second compound 0.316 µM) was > 10000 nM. The IC50 (second compound 1 µM) was > 10000 nM, the IC50 (second compound 3.16 µM) was > 10000 nM and the IC50 (second compound 10 µM) was > 10000 nM. For the same compound, the viability, T/C [1] was 110%, the viability, T/C [2] was 106% and the viability, T/C [3] was 106%. For the same compound, the viability, T/C [4] was 111%, the viability, T/C (second compound 0.0316 µM, first compound 3.16 µM) was 123% and the viability, T/C (second compound 0.0316 µM, first compound 10 µM) was 120%. It also gave a viability, T/C [5] of 95%, a viability, T/C [6] of 111% and a viability, T/C [7] of 108%. The viability, T/C [8] was 123%, the viability, T/C (second compound 0.1 µM, first compound 3.16 µM) was 123% and the viability, T/C (second compound 0.1 µM, first compound 10 µM) was 116%. It also gave a viability, T/C [9] of 111%, a viability, T/C [10] of 123% and a viability, T/C [11] of 111%. The viability, T/C [12] was 114%, the viability, T/C (second compound 0.316 µM, first compound 3.16 µM) was 128% and the viability, T/C (second compound 0.316 µM, first compound 10 µM) was 114%. For the same compound, the viability, T/C [13] was 119%, the viability, T/C [14] was 120% and the viability, T/C [15] was 114%. The viability, T/C [16] was 119%, the viability, T/C (second compound 1 µM, first compound 3.16 µM) was 121% and the viability, T/C (second compound 1 µM, first compound 10 µM) was 129%. It also gave a viability, T/C [17] of 116%, a viability, T/C [18] of 108% and a viability, T/C [19] of 108%. For the same compound, the viability, T/C [20] was 113%, the viability, T/C (second compound 3.16 µM, first compound 3.16 µM) was 121% and the viability, T/C (second compound 3.16 µM, first compound 10 µM) was 128%. For the same compound, the viability, T/C [21] was 109%, the viability, T/C [22] was 111% and the viability, T/C [23] was 106%. The viability, T/C [24] was 103%, the viability, T/C (second compound 10 µM, first compound 3.16 µM) was 122% and the viability, T/C (second compound 10 µM, first compound 10 µM) was 111%.

Compound `COc1cccc(OCCCN)c1-c1cc(Nc2cnc(C#N)cn2)n[nH]1` + Nc1ccc(C#CCN(C(=O)Cc2ncc(C(F)(F)F)cc2C(F)(F)F)c2ccc(F)cc2)nn1 has an IC50 (second compound 0.0316 µM) of 27.7 nM, an IC50 (second compound 0.1 µM) of 31.9 nM and an IC50 (second compound 0.316 µM) of 31.5 nM. For the same compound, the IC50 (second compound 1 µM) was 25.2 nM, the IC50 (second compound 3.16 µM) was 24.1 nM and the IC50 (second compound 10 µM) was 24 nM. The viability, T/C (second compound 0.0316 µM, first compound 0.00316 µM) was 111%, the viability, T/C (second compound 0.0316 µM, first compound 0.01 µM) was 197% and the viability, T/C [1] was 36.6%. The viability, T/C [2] was 11.9%, the viability, T/C [3] was 7.2% and the viability, T/C [4] was 6.13%. The viability, T/C (second compound 0.1 µM, first compound 0.00316 µM) was 106%, the viability, T/C (second compound 0.1 µM, first compound 0.01 µM) was 196% and the viability, T/C [5] was 50.3%. The viability, T/C [6] was 10.7%, the viability, T/C [7] was 6.14% and the viability, T/C [8] was 5.3%. It also gave a viability, T/C (second compound 0.316 µM, first compound 0.00316 µM) of 113%, a viability, T/C (second compound 0.316 µM, first compound 0.01 µM) of 176% and a viability, T/C [9] of 49.8%. For the same compound, the viability, T/C [10] was 11.1%, the viability, T/C [11] was 7.07% and the viability, T/C [12] was 6.94%. It also gave a viability, T/C (second compound 1 µM, first compound 0.00316 µM) of 105%, a viability, T/C (second compound 1 µM, first compound 0.01 µM) of 148% and a viability, T/C [13] of 31.3%. The viability, T/C [14] was 9.99%, the viability, T/C [15] was 7.86% and the viability, T/C [16] was 7.5%. It also gave a viability, T/C (second compound 3.16 µM, first compound 0.00316 µM) of 107%, a viability, T/C (second compound 3.16 µM, first compound 0.01 µM) of 178% and a viability, T/C [17] of 21.6%. It also gave a viability, T/C [18] of 15.9%, a viability, T/C [19] of 7.71% and a viability, T/C [20] of 6.25%. The viability, T/C (second compound 10 µM, first compound 0.00316 µM) was 100%, the viability, T/C (second compound 10 µM, first compound 0.01 µM) was 161% and the viability, T/C [21] was 24.6%. It also gave a viability, T/C [22] of 8%, a viability, T/C [23] of 9.72% and a viability, T/C [24] of 7.4%.

— PubChem BioAssay AID1963838 (Molecular Pharmacology Branch, DTP, NCI, 2024)
